The source of these data is patent US20190014806A1, “Composition to Reduce the Negative Effects of Alcohol Consumption” (priority 2017, published 2019).

The subject of the test is drosophila. Description: alcohol sedation model: recovery of drosophila after acute alcohol exposure. In kind it is in vivo. The settings on record: FIG. 1; acute alcohol exposure over time; agents in fly food at least two days before exposure. How it is done: This invention used a modified version of the alcohol sedation model disclosed by Sandhu et al to evaluate the effects of acute alcohol exposure in drosophila. For example, in one of the models, for at least two days prior to alcohol exposure, drosophila consumed standard fly food combined with placebo or investigational agents. The drosophila were then moved to empty, foam stopper-covered vials and allowed to acclimate before the foam stoppers were injected with 1 ml 100% ethanol. At different time intervals, it was noted how many drosophila in each vial lost consciousness. […] The average recovery score was calculated by averaging the recovery scores of individual drosophila. Increasing the extent of alcohol exposure led to greater alcohol toxicity, including substantial death. In the following examples, a modified version of the alcohol sedation model employed by Sandhu et al. (“An Inexpensive, Scalable Behavioral Assay for Measuring Ethanol Sedation Sensitivity and Rapid Tolerance in Drosophila,” J Vis Exp. Author manuscript; available in PMC 2016 Apr. 15) to evaluate the effects of acute alcohol exposure was used. For at least two days prior to alcohol exposure, flies consumed standard fly food combined with placebo or investigational agents. […] The average recovery score is calculated by averaging the recovery scores of individual flies. […]

On to `NCCS(=O)(=O)O` [taurine], for which the “recovery from consumption of alcohol in comparison with no taurine added (placebo)” value is “accelerates recovery from consumption of alcohol”.
